Experiments:
enzyme EC 1.14.19.1 = experiment: [3H]oleate incorporation in U118 cell membranes; assay type: cell-based, human; details: U118, 200 μM, 24 h
Method: FIG. 10. Regulation of the activity of enzyme 1.14.19.1.
Oleic acid is synthesised from esteric acid by the activity of the estearoil-CoA desaturase enzyme (EC 1.14.19.1). This enzyme is crucial in lipid metabolism, as it is a limitant in the synthesis of fatty acids. To see whether this reduction was due to regulation of enzyme EC 1.14.19.1, we incubated U118 cells in the presence or absence of 2OHOA (200 μM, 24 h) and, later, in the presence of [^3H]oleate (5 minutes).

U118 cells = experiment: Nuclear SM levels in U118 cells; assay type: cell-based, human; details: U118, 200 μM, 24 hours
Method: FIG. 3. Compound 2OHOA induces an increase in nuclear SM. U118 cancer cells were treated for 24 hours with a vehicle (control) or with 2OHOA at a concentration of 200 μM. The values of the ordinate axis represent the average±ESM (n=3-5) of levels of SM compared to the untreated control (100%).
Another effect associated to the reduction in cell proliferation is an increase in the levels of nuclear SM.

enzyme EC 2.3.1.50 = experiment: [3H]palmitate incorporation in lipid fractions of U118 cells; assay type: cell-based, human; set-up: dose or concentration left out as unconfirmed; details: U118, 24 h
Method: FIG. 9. Regulation of the activity of enzyme 2.3.1.50.
We incubated human glioma cells U118 in the presence or absence (control) of 2OHOA ([…], 24 h) and later incubated them with [^3H]palmitate for 5 minutes. After these periods of incubation, we extracted the cellular lipids and separated them by TLC. The bands correspond to each species of lipid extracted and the amount of radioactive palmitate incorporated was measured by liquid shining. As we can see, not only was there an important incorporation of the fraction of the SM (an indicator of the activity of enzyme EC 2.7.8.27), but also in the fraction of the ceramide, which indicates activity of enzyme EC 2.3.1.50 (serin-palmitoil transferase).

enzyme EC 2.7.8.27 = experiment: Activity of enzyme EC 2.7.8.27 in U118 cells (NBD-Cer to NBD-SM); assay type: cell-based, human; details: U118, 200 μM, 5 minutes to 24 hours
Method: FIG. 4. Compound 2OHOA acts directly on enzyme EC 2.7.8.27. In A, B, C, in all cases, we incubated cells or cellular extracts or means of incubation with the fluorescent stratum of this enzyme NBD-Cer (nitro-benzoxadiazol-il) ceramide], in the presence or absence (control, white bars) of 2OHOA (black bars). Then, we extracted the lipids and determined the levels of formation of NBD-SM per HPTLC (HP-TLC, high performance thin layer chromatography). The values are presented on the ordinate axis as the average±ESM (n=3-5).
A. In vivo experiment of the activity of enzyme EC 2.7.8.27: we incubated U118 cells with NBD-Cer for 4 hours and then treated them with compound 2OHOA (200 μM) for different periods of time (5, 15, 60 minutes y 24 hours). Later, the cells homogenised and we measured the metabolisation of fluorofor NBD-Cer to become NBD-SM.
The speed of the phenomenon clearly indicates direct and effective interaction between enantiomer 2OHOA and enzyme EC 2.7.8.27. So, this invention refers to the use of the aforementioned compounds as activators (enantiomer [−]), or inhibitors (enantiomer [+]) specific to enzyme EC 2.7.8.27.

A172 cells = experiment: Levels of SM in cell membranes, A172; assay type: cell-based, human; details: A172, 200 μM [−]2OHOA
Method: (§1) The levels of SM, cultivated in the absence (control) or presence of 200 μM of [−]2OHOA, in normal cell membranes (MRC-5 and IMR90) were measured, and also in several types of tumoral cells (see Table 2). In all cases, we detected that the membranes of tumoral cells have SM levels of about half or a third of that in normal cells (FIG. 1). We can therefore assert that SM concentration is a biomarker which indicates tumorgenesis in human cells. On the other hand, treatments with the molecules of the present invention induce an increase of SM in the tumour cells which is not naturally occurring. […] For example, the spectrophotometry determination of solution fluorescence of the SM levels is a very simple, quick and efficient analysis method (FIG. 1D). Thus, this invention has generated a method for diagnosis for detecting the described pathological processes and pathologies in which there are SM level changes, and also for monitoring the efficiency of the therapy using molecules of the present invention and others of similar activity. Based on this knowledge, this invention also includes kits for diagnosing these diseases.

T98G cells [1] = experiment: Cell growth inhibition, T98G; assay type: cell-based, human; set-up: key: +: inhibition of cell growth; −: absence of effect
PC3 cells = experiment: Levels of SM in cell membranes, PC3; assay type: cell-based, human; details: PC3, 200 μM [−]2OHOA
Method: as §1

HeLa cells = experiment: Levels of SM in cell membranes, HeLa; assay type: cell-based, human; details: 200 μM [−]2OHOA
Method: as §1

HepG2 cells = experiment: Levels of SM in cell membranes, HepG2; assay type: cell-based, human; details: HepG2, 200 μM [−]2OHOA
Method: as §1

HT29 cells = experiment: Levels of SM in cell membranes, HT29; assay type: cell-based, human; details: HT29, 200 μM [−]2OHOA
Method: as §1

1321N1 cells = experiment: Cell growth inhibition, 1321N1; assay type: cell-based, human; set-up: key: +: inhibition of cell growth; −: absence of effect
T98G cells [2] = experiment: Levels of SM in cell membranes, T98G; assay type: cell-based, human; details: 200 μM [−]2OHOA
Method: as §1

IMR90 cells = experiment: Levels of SM in cell membranes, IMR90; assay type: cell-based, human; details: IMR90 non-tumoral fibroblast, 200 μM [−]2OHOA
Method: as §1

BXPC3 cells = experiment: Levels of SM in cell membranes, BXPC3; assay type: cell-based, human; details: BXPC3, 200 μM [−]2OHOA
Method: as §1

C-6 cells = experiment: Levels of SM in cell membranes, C-6; assay type: cell-based; details: C-6 rat glioma, 200 μM [−]2OHOA
Method: as §1

SMILES | incorporation of radioactive oleic acid in cell membranes (enzyme EC 1.14.19.1) | level of nuclear SM (U118 cells) | activity of enzyme EC 2.3.1.50 ([3H]palmitate in ceramide fraction) (enzyme EC 2.3.1.50) | activation of enzyme EC 2.7.8.27 in cell cultures (enzyme EC 2.7.8.27) | % SM after treatment (A172 cells) | Effect (anti-proliferation effect) (T98G cells [1]) | % SM after treatment (PC3 cells) | % SM after treatment (HeLa cells) | % SM after treatment (HepG2 cells) | % SM after treatment (HT29 cells) | Effect (anti-proliferation effect) (1321N1 cells) | % SM after treatment (T98G cells [2]) | % SM after treatment (IMR90 cells) | % SM after treatment (BXPC3 cells) | % SM after treatment (C-6 cells)
CCCCCCCC/C=C\CCCCCCC(O)C(=O)O (racemic) [2OHOA, 2-hydroxyoleic acid] | significantly less than in control cells | increases in the level of nuclear SM | specific activator of enzyme EC 2.3.1.50 | enzymatic activation is visible from the first few minutes of incubation |  |  |  |  |  |  |  |  |  |  | 
CCCCCCCC/C=C\CCCCCCC(O)C(=O)O (stereo not drawn) [[−]2OHOA] [[−] HOOC—HOCH—(CH2)6—(CH═CH—CH2)1—(CH2)6—CH3] |  |  |  |  | 23% | + | 27% | 21% | 35% | 21% | + | 19% | 23% | 26% | 20%
